Experiment [1] has as its system platelet aggregation. Description: Platelet aggregation inhibitory activity ex vivo (by oral administration). It counts as in vivo, male Wistar ST rats. Particulars: 1 hour, collagen 7 to 10 μg/ml, rat. As to the method:
Platelet aggregation inhibitory activity ex vivo (by oral administration)
A group of 8 male Wistar ST rats each weighing about 250 grams were used. To the test animal was orally administered 4 ml/kg of a solution made by suspending a test compound in 1% aqueous tragacanth solution, and one hour later blood was collected from common carotid artery with a cannula. […] The residue was further centrifuged by […] for 15 minutes and the supernatant was recovered as poor platelet plasma (PPP). The plasma samples were used for assaying the platelet aggregating ability.
As an aggregation inducer, 7 to 10 μg/ml of collagen (Hormon-Chemie) was used.
Platelet Aggregation-inhibitory ratio was calculated by the following formula: [formula] A: Aggregating ratio of the group (control) in which only 1% aqueous tragacanth solution was administered.
B: Aggregating ratio of the group in which a solution of the test compound in tragacanth solution was administered.

Experiment [2] concerns platelet aggregation. Description: Platelet aggregation-inhibitory activity in vitro (collagen-induced, rat platelet rich plasma). It counts as cell-based. To be noted: for inhibition at 1 µM / inhibition at 0.1 µM / inhibition at 0.3 µM: read-out: in vitro Inhibitory ratio; for inhibition at 0.3 µM: 3 × 10^-7 M. As to the method:
Platelet aggregation-inhibitory activity in vitro
Rat arterial blood was centrifuged to obtain platelet rich plasma.
Platelet aggregation inhibitory ratio was calculated by the following formula: [formula] Tc: Aggregation degree where only a solvent was added. Ts: Aggregation degree where a solution of the test compound was added.

Experiment [3] deals with rat left coronary artery ligation-induced cardiac infarction. The experiment is described as follows: Activity to rat left coronary artery ligation-induced cardiac infarction. Format: in vivo, male SD rats. To be noted: 60 minutes prior to ligation. From the text:
Activity of the compounds (I) to rat left coronary artery ligation-induced cardiac infarction
A group of 8 male SD rats weighing 200 to 250 g were used. The rats were fixed at the dosal position under light ether paralysis, subjected to longitudinal incission in about 1.5 cm along the sternal left line to make thoractonomy under breaking the heart sac and exposing the heart. After ligating the left main coronary artery at 1 to 2 mm from the origin with black blade silk suture (Hama Ika Kogyo, 4-0), the heart was returned at the original position and the breast was closed immediately. The bilateral breast was pressed to exclude the air in the thoracic cavity to resume respiration. […] Twenty-four hours after ligation, the blood was collected from the ventral vena cava, and the rat was killed by complete bleeding. The heart was taken out, and the cross circular slice (about 2 mm) at the central part of the heart was incubated at 37° C. in the dark for 20 minutes in 20 ml of 1% solution of TTC (tryphenyl tetrazolium chloride, Wako Junyaku) in 0.09 M phosphate buffer (pH 8.6). The slice was photographed under a stereoscopic microscope, and the colored slides were prepared therefrom. The slides were projected on the wall, and the sections, the infarction parts (TTC non-dyed part) and non-infarction parts (TTC dyed part), were traced. So, the area of the infarction part in the total section area was calculated. A solution made by suspending the test compound in 1% aqueous tragacanth solution was orally administered 60 minutes prior to the coronary artery ligation. [formula] A: Infarction ratio where only 1% tragacanth solution was administered for control.
B: Infarction ratio where the tragacanth solution containing the test compound was administered.

For the molecule `CC(Nc1nnc(-c2ccccc2)c2ccccc12)c1ccccc1` (racemic) [1 (DL)], the figures for the “ex vivo Inhibitory ratio (p.o.)” value in experiment [1] (1 mg/kg p.o.) and in experiment [1] (3 mg/kg p.o.) were 76.2% and 79.8%, respectively. For the same molecule, the inhibition at 1 µM in experiment [2] (10^-6 M) was determined as 84%. Moreover, in experiment [2] (10^-7 M), the inhibition at 0.1 µM turned out to be 72.2%.

`CCC(Nc1nnc(-c2ccccc2)c2ccccc12)c1ccccc1` (racemic) [2 (DL)]: the “ex vivo Inhibitory ratio (p.o.)” value was determined as 37.8% in experiment [1] (1 mg/kg p.o.), 52.3% in experiment [1] (3 mg/kg p.o.) and 94.5% in experiment [1] (10 mg/kg p.o.). Moreover, in experiment [2] (10^-6 M), the inhibition at 1 µM was found to be 96.4%. In addition, in experiment [2] (10^-7 M), the inhibition at 0.1 µM came out at 100%.

As to `CCCC(Nc1nnc(-c2ccccc2)c2ccccc12)c1ccccc1` (racemic) [3 (DL)], the inhibition at 0.3 µM in experiment [2] stood at 96.8%. In addition, in experiment [2] (10^-7 M), the inhibition at 0.1 µM was 65.9%.

Regarding `CC(C)C(Nc1nnc(-c2ccccc2)c2ccccc12)c1ccccc1` (racemic) [4 (DL)], the inhibition at 1 µM in experiment [2] (10^-6 M) turned out to be 96.6%. In addition, in experiment [2] (10^-7 M), the inhibition at 0.1 µM stood at 49.3%.

For `CCCCC(Nc1nnc(-c2ccccc2)c2ccccc12)c1ccccc1` (racemic) [5 (DL)], the inhibition at 1 µM in experiment [2] (10^-6 M) turned out to be 98.4%. For the same molecule, in experiment [2] (10^-7 M), the inhibition at 0.1 µM was 20.6%.

For the molecule `CC(C)(C)C(Nc1nnc(-c2ccccc2)c2ccccc12)c1ccccc1` (racemic) [8 (DL)], the figures for the “ex vivo Inhibitory ratio (p.o.)” value in experiment [1] (1 mg/kg p.o.), in experiment [1] (3 mg/kg p.o.) and in experiment [1] (10 mg/kg p.o.) were 22.0%, 35.1% and 69.9%, respectively. The inhibition at 1 µM in experiment [2] (10^-6 M) worked out at 100%. Also, the inhibition at 0.1 µM in experiment [2] (10^-7 M) was determined as 100%.

On to `CC(Nc1nnc(-c2ccc(Cl)cc2)c2ccccc12)c1ccccc1` (racemic) [34 (DL)], for which the inhibition at 1 µM in experiment [2] (10^-6 M) came to 100%.

In the case of `Cc1ccc(C(C)Nc2nnc(-c3ccccc3)c3ccccc23)cc1` (racemic) [56 (DL)], in experiment [2] (10^-7 M), the inhibition at 0.1 µM amounted to 92.9%.

Regarding `Cc1cccc(C(C)Nc2nnc(-c3ccccc3)c3ccccc23)c1` (racemic) [57 (DL)], the “ex vivo Inhibitory ratio (p.o.)” value in experiment [1] (1 mg/kg p.o.) is reported as 61.8%. The inhibition at 0.1 µM in experiment [2] (10^-7 M) came to 90.3%.

In the case of `Cc1ccccc1C(C)Nc1nnc(-c2ccccc2)c2ccccc12` (racemic) [58 (DL)], in experiment [2] (10^-7 M), the inhibition at 0.1 µM is 89.9%.

Regarding `CCc1ccc(C(C)Nc2nnc(-c3ccccc3)c3ccccc23)cc1` (racemic) [59 (DL)], the inhibition at 0.1 µM in experiment [2] (10^-7 M) worked out at 56.5%.

Take `COc1ccc(C(C)Nc2nnc(-c3ccccc3)c3ccccc23)cc1` (racemic) [69 (DL)]: the inhibition at 0.3 µM in experiment [2] turned out to be 74.7%. In experiment [2] (10^-7 M), the inhibition at 0.1 µM was found to be 21%.

`COc1cccc(C(C)Nc2nnc(-c3ccccc3)c3ccccc23)c1` (racemic) [72 (DL)]: in experiment [2] (10^-6 M), the inhibition at 1 µM was found to be 94.8%. Moreover, the inhibition at 0.1 µM in experiment [2] (10^-7 M) turned out to be 14.9%.

For the molecule `COc1ccccc1C(C)Nc1nnc(-c2ccccc2)c2ccccc12` (racemic) [73 (DL)], the inhibition at 0.1 µM in experiment [2] (10^-7 M) was 93.3%.

As for `COc1ccc(C(C)Nc2nnc(-c3ccccc3)c3ccccc23)cc1OC` (racemic) [78 (DL)], the inhibition at 0.3 µM in experiment [2] came out at 93.6%. Also, the inhibition at 0.1 µM in experiment [2] (10^-7 M) was 6.2%.

As to `CC(Nc1nnc(-c2ccccc2)c2ccccc12)c1ccc2c(c1)OCO2` (racemic) [79 (DL)], the inhibition at 0.3 µM in experiment [2] was found to be 95.3%. Further, the inhibition at 0.1 µM in experiment [2] (10^-7 M) was determined as 6.3%.

As for `CC(Nc1nnc(-c2ccccc2)c2ccccc12)c1ccc(Cl)cc1` (racemic) [80 (DL)], the inhibition at 0.3 µM in experiment [2] came to 93.3%. Moreover, the inhibition at 0.1 µM in experiment [2] (10^-7 M) is 26.3%.

For `CC(Nc1nnc(-c2ccccc2)c2ccccc12)c1cccc(Cl)c1` (racemic) [81 (DL)], in experiment [1] (10 mg/kg p.o.), the “ex vivo Inhibitory ratio (p.o.)” value worked out at 72.5%. Moreover, in experiment [2] (10^-6 M), the inhibition at 1 µM was 98.3%. For the same molecule, the inhibition at 0.1 µM in experiment [2] (10^-7 M) is 40.7%.

As to `CC(Nc1nnc(-c2ccccc2)c2ccccc12)c1ccccc1Cl` (racemic) [82 (DL)], the inhibition at 0.3 µM in experiment [2] amounted to 58.5%. The inhibition at 1 µM in experiment [2] (10^-6 M) turned out to be 65.5%.

For the molecule `CC(Nc1nnc(-c2ccccc2)c2ccccc12)c1ccc(F)cc1` (racemic) [85 (DL)], the inhibition at 0.3 µM in experiment [2] was 94.1%. In addition, the inhibition at 0.1 µM in experiment [2] (10^-7 M) turned out to be 10.2%.

As to `CC(Nc1nnc(-c2ccccc2)c2ccccc12)c1cccc(F)c1` (racemic) [86 (DL)], in experiment [1] (1 mg/kg p.o.), the “ex vivo Inhibitory ratio (p.o.)” value was 40.5%. In addition, the inhibition at 1 µM in experiment [2] (10^-6 M) stood at 100%.

Take `CC(Nc1nnc(-c2ccccc2)c2ccccc12)c1ccccc1F` (racemic) [87 (DL)]: in experiment [2] (10^-6 M), the inhibition at 1 µM was 52.4%.

Regarding `CC(Nc1nnc(-c2ccccc2)c2ccccc12)c1ccc(C(F)(F)F)cc1` (racemic) [91 (DL)], the inhibition at 1 µM in experiment [2] (10^-6 M) worked out at 22.5%.

With `CC(Nc1nnc(-c2ccccc2)c2ccccc12)c1cccc(C(F)(F)F)c1` (racemic) [92 (DL)], the inhibition at 1 µM in experiment [2] (10^-6 M) was found to be 89.5%. For the same molecule, in experiment [2] (10^-7 M), the inhibition at 0.1 µM turned out to be 1.5%.

With `C[C@@H](Nc1nnc(-c2ccccc2)c2ccccc12)c1ccccc1` [1 (D), D-1-α-methylbenzylamino-4-phenylphthalazine], the “ex vivo Inhibitory ratio (p.o.)” value in experiment [1] (1 mg/kg p.o.) is 65.5%; in experiment [1] (3 mg/kg p.o.), 80.2%; in experiment [1] (10 mg/kg p.o.), 88.5%. The “Cardiac infarction inhibitory ratio” value is listed as 81.1% in experiment [3] (2 mg/kg p.o.) and 76.6% in experiment [3] (10 mg/kg p.o.). Besides, the “in vitro Inhibitory ratio” value amounted to 100% in experiment [2] (10^-6 M, 1 µM) and 100% in experiment [2] (10^-7 M, 0.1 µM).

On to `CC(=O)Oc1ccccc1C(=O)O` [Aspirin, reference compound], for which, in experiment [3] (100 mg/kg p.o.), the “Cardiac infarction inhibitory ratio” value is on record as 10.7%.

With `CC(C)(Nc1nnc(-c2ccccc2)c2ccccc12)c1ccccc1` [Compound No. 119, 1-α,α-dimethylbenzylamino-4-phenylphthalazine], the inhibition at 0.1 µM in experiment [2] (10^-7 M) was determined as 93%.

Turning to `c1ccc(CCCNc2nnc(-c3ccccc3)c3ccccc23)cc1` [Control 3, reference compound], the inhibition at 1 µM in experiment [2] (10^-6 M) was 40.7%. The inhibition at 0.1 µM in experiment [2] (10^-7 M) is 12.6%.

Consider `CC(Cc1ccccc1)Nc1nnc(-c2ccccc2)c2ccccc12` (centres unmarked) [Control 4, reference compound], for which the inhibition at 1 µM in experiment [2] (10^-6 M) stood at 7.1%.

Regarding `Clc1ccccc1CN1CCc2sccc2C1` [Ticlopidine, reference compound], the “Cardiac infarction inhibitory ratio” value in experiment [3] (30 mg/kg p.o.) stood at 10.1%.

Consider `c1ccc(-c2nnc(NC3(c4ccccc4)CCCCC3)c3ccccc23)cc1` [compound 136], for which the inhibition at 0.1 µM in experiment [2] (10^-7 M) came out at 94.7%.

Take `Cc1ccc(C(C)(C)Nc2nnc(-c3ccccc3)c3ccccc23)cc1` [compound 166]: in experiment [2] (10^-6 M), the inhibition at 1 µM was 100%. The inhibition at 0.1 µM in experiment [2] (10^-7 M) was found to be 100%.

Take `Cc1cccc(C(C)(C)Nc2nnc(-c3ccccc3)c3ccccc23)c1` [compound 167]: the inhibition at 1 µM in experiment [2] (10^-6 M) was 100%. In addition, the inhibition at 0.1 µM in experiment [2] (10^-7 M) was 100%.

Values taken from patent publication US5089494A, “4-phenylphthalazine derivatives which inhibit platelet aggregation” (Mitsubishi Kasei Corporation, priority 1990, dated 1992).
